Measured values: PubChem BioAssay (NCI)
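Cultured in 96-well plates, cells were exposed to test compound for 48 hours across five concentrations. GI50 marks 50% less growth. TGI: total growth inhibition.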

Key:
Test in all cases: NCI tumour cell line growth inhibition, 48 h
786-0 renal = tested on: 786-0 renal
A498 renal = tested on: A498 renal
A549 NSCLC = tested on: A549 NSCLC
ACHN renal = tested on: ACHN renal
BT-549 breast = tested on: BT-549 breast
CAKI-1 renal = tested on: CAKI-1 renal
CCRF-CEM leukemia = tested on: CCRF-CEM leukemia
COLO 205 colon = tested on: COLO 205 colon
DU-145 prostate = tested on: DU-145 prostate
EKVX NSCLC = tested on: EKVX NSCLC
HCC-2998 colon = tested on: HCC-2998 colon
HCT-116 colon = tested on: HCT-116 colon
HCT-15 colon = tested on: HCT-15 colon
HL-60(TB) leukemia = tested on: HL-60(TB) leukemia
HOP-62 NSCLC = tested on: HOP-62 NSCLC
HS 578T breast = tested on: HS 578T breast
HT29 colon = tested on: HT29 colon
IGROV1 ovarian = tested on: IGROV1 ovarian
K-562 leukemia = tested on: K-562 leukemia
KM12 colon = tested on: KM12 colon
LOX IMVI melanoma = tested on: LOX IMVI melanoma
M14 melanoma = tested on: M14 melanoma
MALME-3M melanoma = tested on: MALME-3M melanoma
MCF7 breast = tested on: MCF7 breast
MDA-MB-231 breast = tested on: MDA-MB-231 breast
MDA-MB-435 = tested on: MDA-MB-435
MOLT-4 leukemia = tested on: MOLT-4 leukemia
NCI-H226 lung = tested on: NCI-H226 lung
NCI-H23 lung = tested on: NCI-H23 lung
NCI-H460 lung = tested on: NCI-H460 lung
NCI-H522 lung = tested on: NCI-H522 lung
NCI/ADR-RES ovarian = tested on: NCI/ADR-RES ovarian
OVCAR-3 ovarian = tested on: OVCAR-3 ovarian
OVCAR-4 ovarian = tested on: OVCAR-4 ovarian
OVCAR-5 ovarian = tested on: OVCAR-5 ovarian
OVCAR-8 ovarian = tested on: OVCAR-8 ovarian
PC-3 prostate = tested on: PC-3 prostate
RPMI-8226 leukemia = tested on: RPMI-8226 leukemia
RXF 393 renal = tested on: RXF 393 renal
SF-268 CNS = tested on: SF-268 CNS
SF-295 CNS = tested on: SF-295 CNS
SF-539 CNS = tested on: SF-539 CNS
SK-MEL-2 melanoma = tested on: SK-MEL-2 melanoma
SK-MEL-28 melanoma = tested on: SK-MEL-28 melanoma
SK-MEL-5 melanoma = tested on: SK-MEL-5 melanoma
SK-OV-3 ovarian = tested on: SK-OV-3 ovarian
SN12C renal = tested on: SN12C renal
SNB-19 CNS = tested on: SNB-19 CNS
SNB-75 CNS = tested on: SNB-75 CNS
SR leukemia = tested on: SR leukemia
SW-620 colon = tested on: SW-620 colon
T-47D breast = tested on: T-47D breast
TK-10 renal = tested on: TK-10 renal
U251 CNS = tested on: U251 CNS
UACC-257 melanoma = tested on: UACC-257 melanoma
UACC-62 melanoma = tested on: UACC-62 melanoma
UO-31 renal = tested on: UO-31 renal

Structure (SMILES): CC1=C(C#N)C(/C=C(\Cl)c2ccc(F)cc2)C(C#N)=C(C)N1
- GI50 (786-0 renal): > 100 µM
- TGI (786-0 renal): > 100 µM
- GI50 (A498 renal): > 100 µM
- TGI (A498 renal): > 100 µM
- GI50 (A549 NSCLC): > 100 µM
- TGI (A549 NSCLC): > 100 µM
- GI50 (ACHN renal): > 100 µM
- TGI (ACHN renal): > 100 µM
- GI50 (BT-549 breast): > 100 µM
- TGI (BT-549 breast): > 100 µM
- GI50 (CAKI-1 renal): > 100 µM
- TGI (CAKI-1 renal): > 100 µM
- GI50 (CCRF-CEM leukemia): > 100 µM
- TGI (CCRF-CEM leukemia): > 100 µM
- GI50 (COLO 205 colon): > 100 µM
- TGI (COLO 205 colon): > 100 µM
- GI50 (DU-145 prostate): > 100 µM
- TGI (DU-145 prostate): > 100 µM
- GI50 (EKVX NSCLC): > 100 µM
- TGI (EKVX NSCLC): > 100 µM
- GI50 (HCC-2998 colon): > 100 µM
- TGI (HCC-2998 colon): > 100 µM
- GI50 (HCT-116 colon): > 100 µM
- TGI (HCT-116 colon): > 100 µM
- GI50 (HCT-15 colon): > 100 µM
- TGI (HCT-15 colon): > 100 µM
- GI50 (HL-60(TB) leukemia): 74 µM
- TGI (HL-60(TB) leukemia): > 100 µM
- GI50 (HOP-62 NSCLC): > 100 µM
- TGI (HOP-62 NSCLC): > 100 µM
- GI50 (HS 578T breast): > 100 µM
- TGI (HS 578T breast): > 100 µM
- GI50 (HT29 colon): > 100 µM
- TGI (HT29 colon): > 100 µM
- GI50 (IGROV1 ovarian): > 100 µM
- TGI (IGROV1 ovarian): > 100 µM
- GI50 (K-562 leukemia): > 100 µM
- TGI (K-562 leukemia): > 100 µM
- GI50 (KM12 colon): > 100 µM
- TGI (KM12 colon): > 100 µM
- GI50 (LOX IMVI melanoma): > 100 µM
- TGI (LOX IMVI melanoma): > 100 µM
- GI50 (M14 melanoma): > 100 µM
- TGI (M14 melanoma): > 100 µM
- GI50 (MALME-3M melanoma): > 100 µM
- TGI (MALME-3M melanoma): > 100 µM
- GI50 (MCF7 breast): > 100 µM
- TGI (MCF7 breast): > 100 µM
- GI50 (MDA-MB-231 breast): 94.9 µM
- TGI (MDA-MB-231 breast): > 100 µM
- GI50 (MDA-MB-435): > 100 µM
- TGI (MDA-MB-435): > 100 µM
- GI50 (MOLT-4 leukemia): > 100 µM
- TGI (MOLT-4 leukemia): > 100 µM
- GI50 (NCI-H226 lung): > 100 µM
- TGI (NCI-H226 lung): > 100 µM
- GI50 (NCI-H23 lung): > 100 µM
- TGI (NCI-H23 lung): > 100 µM
- GI50 (NCI-H460 lung): > 100 µM
- TGI (NCI-H460 lung): > 100 µM
- GI50 (NCI-H522 lung): > 100 µM
- TGI (NCI-H522 lung): > 100 µM
- GI50 (NCI/ADR-RES ovarian): > 100 µM
- TGI (NCI/ADR-RES ovarian): > 100 µM
- GI50 (OVCAR-3 ovarian): > 100 µM
- TGI (OVCAR-3 ovarian): > 100 µM
- GI50 (OVCAR-4 ovarian): > 100 µM
- TGI (OVCAR-4 ovarian): > 100 µM
- GI50 (OVCAR-5 ovarian): > 100 µM
- TGI (OVCAR-5 ovarian): > 100 µM
- GI50 (OVCAR-8 ovarian): > 100 µM
- TGI (OVCAR-8 ovarian): > 100 µM
- GI50 (PC-3 prostate): > 100 µM
- TGI (PC-3 prostate): > 100 µM
- GI50 (RPMI-8226 leukemia): 36.3 µM
- TGI (RPMI-8226 leukemia): > 100 µM
- GI50 (RXF 393 renal): > 100 µM
- TGI (RXF 393 renal): > 100 µM
- GI50 (SF-268 CNS): > 100 µM
- TGI (SF-268 CNS): > 100 µM
- GI50 (SF-295 CNS): 53.7 µM
- TGI (SF-295 CNS): > 100 µM
- GI50 (SF-539 CNS): > 100 µM
- TGI (SF-539 CNS): > 100 µM
- GI50 (SK-MEL-2 melanoma): > 100 µM
- TGI (SK-MEL-2 melanoma): > 100 µM
- GI50 (SK-MEL-28 melanoma): > 100 µM
- TGI (SK-MEL-28 melanoma): > 100 µM
- GI50 (SK-MEL-5 melanoma): > 100 µM
- TGI (SK-MEL-5 melanoma): > 100 µM
- GI50 (SK-OV-3 ovarian): > 100 µM
- TGI (SK-OV-3 ovarian): > 100 µM
- GI50 (SN12C renal): > 100 µM
- TGI (SN12C renal): > 100 µM
- GI50 (SNB-19 CNS): > 100 µM
- TGI (SNB-19 CNS): > 100 µM
- GI50 (SNB-75 CNS): 86.3 µM
- TGI (SNB-75 CNS): > 100 µM
- GI50 (SR leukemia): > 100 µM
- TGI (SR leukemia): > 100 µM
- GI50 (SW-620 colon): > 100 µM
- TGI (SW-620 colon): > 100 µM
- GI50 (T-47D breast): > 100 µM
- TGI (T-47D breast): > 100 µM
- GI50 (TK-10 renal): > 100 µM
- TGI (TK-10 renal): > 100 µM
- GI50 (U251 CNS): > 100 µM
- TGI (U251 CNS): > 100 µM
- GI50 (UACC-257 melanoma): > 100 µM
- TGI (UACC-257 melanoma): > 100 µM
- GI50 (UACC-62 melanoma): 81 µM
- TGI (UACC-62 melanoma): > 100 µM
- GI50 (UO-31 renal): > 100 µM
- TGI (UO-31 renal): > 100 µM
